From PubChem BioAssay (NCI)
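Five concentrations, 48 hours, 96-well plates. TGI is the concentration that stops growth completely.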

Tests used:
Assay in all cases: NCI-60 cell line screen, 48 h
A549 NSCLC = test system: A549 NSCLC
OVCAR-8 ovarian = test system: OVCAR-8 ovarian
COLO 205 colon = test system: COLO 205 colon
HL-60(TB) leukemia = test system: HL-60(TB) leukemia
BT-549 breast = test system: BT-549 breast
786-0 renal = test system: 786-0 renal
NCI-H226 lung = test system: NCI-H226 lung
SF-268 CNS = test system: SF-268 CNS
OVCAR-5 ovarian = test system: OVCAR-5 ovarian
SK-MEL-2 melanoma = test system: SK-MEL-2 melanoma
SN12C renal = test system: SN12C renal
CAKI-1 renal = test system: CAKI-1 renal
SK-MEL-28 melanoma = test system: SK-MEL-28 melanoma
SF-539 CNS = test system: SF-539 CNS
OVCAR-3 ovarian = test system: OVCAR-3 ovarian
NCI-H23 lung = test system: NCI-H23 lung
KM12 colon = test system: KM12 colon
SW-620 colon = test system: SW-620 colon
UO-31 renal = test system: UO-31 renal
MDA-MB-435 = test system: MDA-MB-435
RXF 393 renal = test system: RXF 393 renal
IGROV1 ovarian = test system: IGROV1 ovarian
EKVX NSCLC = test system: EKVX NSCLC
M14 melanoma = test system: M14 melanoma
NCI-H460 lung = test system: NCI-H460 lung
UACC-257 melanoma = test system: UACC-257 melanoma
DU-145 prostate = test system: DU-145 prostate
HCT-116 colon = test system: HCT-116 colon
MDA-N = test system: MDA-N
TK-10 renal = test system: TK-10 renal
HT29 colon = test system: HT29 colon
HOP-92 NSCLC = test system: HOP-92 NSCLC
T-47D breast = test system: T-47D breast
NCI/ADR-RES ovarian = test system: NCI/ADR-RES ovarian
OVCAR-4 ovarian = test system: OVCAR-4 ovarian
A498 renal = test system: A498 renal
UACC-62 melanoma = test system: UACC-62 melanoma
SNB-75 CNS = test system: SNB-75 CNS
SNB-19 CNS = test system: SNB-19 CNS
ACHN renal = test system: ACHN renal
SK-OV-3 ovarian = test system: SK-OV-3 ovarian
U251 CNS = test system: U251 CNS
MDA-MB-231 breast = test system: MDA-MB-231 breast
HOP-62 NSCLC = test system: HOP-62 NSCLC
HCC-2998 colon = test system: HCC-2998 colon
MOLT-4 leukemia = test system: MOLT-4 leukemia
SK-MEL-5 melanoma = test system: SK-MEL-5 melanoma
LOX IMVI melanoma = test system: LOX IMVI melanoma
SF-295 CNS = test system: SF-295 CNS
HCT-15 colon = test system: HCT-15 colon

Measured: TGI

C/C(O)=C(\C=N\C(=S)N=Nc1c(O)[nH]c2ccccc12)C(=O)Nc1ccccc1C
> 100 µM: A549 NSCLC | OVCAR-8 ovarian | COLO 205 colon | HL-60(TB) leukemia | BT-549 breast | 786-0 renal | NCI-H226 lung | SF-268 CNS | OVCAR-5 ovarian | SK-MEL-2 melanoma | SN12C renal | CAKI-1 renal | SK-MEL-28 melanoma | SF-539 CNS | OVCAR-3 ovarian | NCI-H23 lung | KM12 colon | SW-620 colon | UO-31 renal | MDA-MB-435 | RXF 393 renal | IGROV1 ovarian | EKVX NSCLC | M14 melanoma | NCI-H460 lung | UACC-257 melanoma | DU-145 prostate | HCT-116 colon | MDA-N | TK-10 renal | HT29 colon | HOP-92 NSCLC | T-47D breast | NCI/ADR-RES ovarian | OVCAR-4 ovarian | A498 renal | UACC-62 melanoma | SNB-75 CNS | SNB-19 CNS | ACHN renal | SK-OV-3 ovarian | U251 CNS | MDA-MB-231 breast | HOP-62 NSCLC | HCC-2998 colon | MOLT-4 leukemia | SK-MEL-5 melanoma | LOX IMVI melanoma | SF-295 CNS | HCT-15 colon
